In patent US20190224261A1, “LICORICE EXTRACT COMPOSITIONS AND METHOD OF USE” (Adbiotech, Co. Ltd, priority 2018, published 2019):

Experiments:
[1] = system: STAT-3 phosphorylation; test: Interleukin-6 induced STAT-3 phosphorylation; type: cell-based; settings: IL-6 induced STAT-3 phosphorylation; 100 uM
[2] = DPPH radical scavenging activity
Method: The 2,2-diphenyl-1-picrylhydrazyl (DPPH) radical scavenging activity was evaluated as described (Gupta D et al., BMC Complement Altem Med, 2011; 11:13. doi: 10.1186/1472-6882-11-13) with modifications. In this assay, 0.2 mL of sample at different concentrations (1-1000 μg/mL) was added to 1.8 mL of DPPH solution (0.11 mM) in 80% ethanol. The mixture was then incubated for 30 minutes and at room temperature in the dark. The absorbance at 517 nm was then measured with ascorbic acid and butylhydroxytoluene (BHT) as reference antioxidants. A 0.2 mL of solvent extract dilution added to 1.8 mL of DPPH solution (0.11 mM) in 80% ethanol serve as the control. Two independent experiments were performed in triplicate. The percentage inhibition was calculated relative to the control using the equation, inhibition of DPPH radical (%)=(1−(Abssample/Abscontrol))×100.

O=c1c(-c2ccc(O)cc2)coc2cc(O)cc(O)c12 [Genestain]
% Inhibition [1]: 96.25%

O=C(NC(Cc1cc(=O)[nH]c2ccccc12)C(=O)O)c1ccc(Cl)cc1 (stereo not drawn) [Rebamipde, rebamipide]
DPPH radical scavenging activity, % ([2]; 100 μg/mL): 0.93 ± 0.83%

O=C1O[C@H]([C@@H](O)CO)C(O)=C1O [Ascorbic acid, ascorbic acid]
DPPH radical scavenging activity, % ([2]; 300 μM): 37.60 ± 0.47%
